From patent US10703764B2, “Benzopiperazine compositions as BET bromodomain inhibitors” (FORMA Therapeutics, Inc., priority 2013, dated 2020)

Legend:
BRD4 BD1 = target: T1, BRD4 BD1 (Homo sapiens, UniProt O60885); experiment: AlphaScreen binding assay, BRD4 Bromodomain 1
T1 construct: made in house
How it was run: (§1)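 An AlphaScreen competition format was used with His-BRD4 BD1 or BD2 and biotin-H4 K5/8/12/16-acetyl peptide, each at matched final levels of 50 nM (BD1) or 100 nM (BD2). Incubation in HEPES/NaCl buffer with 0.1% BSA and 0.01% Triton X-100 ran ≥1 h before IC50 determination.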

BRD4 BD2 = target: T2, BRD4 BD2 (Homo sapiens, UniProt O60885); experiment: AlphaScreen binding assay, BRD4 Bromodomain 2
T2 construct: made in house
How it was run: as §1

MV4-11 cells = experiment: Oncology cell growth assay (3-day proliferation, CellTiter-Glo); format: cell-based; conditions: Homo sapiens, MV4-11, 72 h, AML cell line MV4-11, 72 hours, compounds grouped by IC50 range, read-out: MV4-11 IC50 (inhibition of proliferation, gIC50)
How it was run: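 MV4-11 AML cells (RPMI 1640, 10% FBS) plated at 3000 cells/well and exposed 72 h to compound at final 10 to 0.0045 μM (3-fold series). Viability read by CellTiter-Glo luminescence; gIC50 from four-parameter logistic fit between DMSO control and no-cell background.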

| Structure (SMILES) | IC50 (BRD4 BD1) [nM] | IC50 (BRD4 BD2) [nM] | IC50 (MV4-11 cells) [nM] |
| --- | --- | --- | --- |
| CC(=O)N1c2ccc(-c3cnn(C4CNC4)c3)cc2N(C(=O)OC2CCCCC2)C[C@@H]1C [Example I-1304] | < 100 | < 50 | < 100 |
| CC(C)OC(=O)N1C[C@H](C)N(C(=O)C2CC2)c2ccc(-c3cnn(CC4CCS(=O)(=O)CC4)c3)cc21 [Example I-609] | 100 to 1000 | 50 to 500 | > 500 |
| CC(=O)N1c2ccc(-c3ccc(S(=O)(=O)NC(C)C)cc3)cc2N(C(=O)c2ccco2)C[C@@H]1C [Example I-274] | 1000 to 10000 | < 50 | 100 to 500 |
| CC(=O)N1c2ccc(-c3cccc(S(=O)(=O)NCCO)c3)cc2N(C(=O)C2CCC2)C[C@@H]1C [Example I-1109] | 1000 to 10000 | 50 to 500 | > 500 |
| CC(=O)N1c2ccc(-c3ccc4ncccc4c3)cc2N(C(=O)COc2ccccc2)C[C@@H]1C [Example I-791] | 1000 to 10000 | 50 to 500 | > 500 |
| CC(=O)N1c2ccc(-c3cnn(CCN4CCOCC4)c3)cc2N(C(=O)OC(C)C)C[C@@H]1C [Example I-306] | 100 to 1000 | 50 to 500 | 100 to 500 |
| CC(=O)N1c2cc(N)c(-c3ccc(S(C)(=O)=O)cc3)cc2N(C(=O)OC(C)C)C[C@@H]1C [Example I-216, Isopropyl (S)-4-acetyl-6-amino-3-methyl-7-(4-(methylsulfonyl)phenyl)-3,4-dihydroquinoxaline-1 (2H)-carboxylate] | 1000 to 10000 | > 500 | > 500 |
| CC(=O)N1c2ccc(-c3ccc(S(=O)(=O)CC(C)C)cc3)cc2N(C(=O)C2CCC2)C[C@@H]1C [Example I-1079] | 1000 to 10000 | 50 to 500 | > 500 |
| COC(=O)N1c2ccc(-c3cnn(C4CC4)c3)cc2N(C(=O)Oc2ccccn2)C[C@@H]1C [Example I-1323] | 100 to 1000 | < 50 | 100 to 500 |
| CC(=O)N1c2ccc(-c3cccc(NS(=O)(=O)N(C)C)c3)cc2N(C(=O)C2CCC2)C[C@@H]1C [Example I-1144] | 1000 to 10000 | 50 to 500 | 100 to 500 |
| CC(=O)N1c2ccc(-c3cnn(CC4CC4(F)F)c3)cc2N(C(=O)C2CC2)C[C@@H]1C (stereo partly drawn) [Example I-148, 1-((S)-4-(cyclopropanecarbonyl)-6-(1-((2,2-difluorocyclopropyl)methyl)-1H-pyrazol-4-yl)-2-methyl-3,4-dihydroquinoxalin-1(2H)-yl)ethanone] | 100 to 1000 | 50 to 500 | 100 to 500 |
| COC(=O)N1c2ccc(-c3ccc(C(=O)N4CC[C@@H](NC(C)=O)C4)cc3)cc2N(C(=O)OC(C)C)C[C@@H]1C [Example I-569] | 100 to 1000 | 50 to 500 | 100 to 500 |
| CC(=O)N1c2ccc(-c3ccc(NS(C)(=O)=O)cc3)cc2N(C(=O)OC(C)C)C[C@@H]1C [Example I-345] | 100 to 1000 | 50 to 500 | 100 to 500 |
| C[C@H]1CN(C(=O)OCC2CC2)c2cc(-c3cnn(C4CC4)c3)ccc2N1C(=O)C1CC1 [Example I-995] | 100 to 1000 | 50 to 500 | 100 to 500 |
| CC(=O)N1c2ccc(-c3ccc(NS(C)(=O)=O)c(F)c3)cc2N(C(=O)C2CCC2)C[C@@H]1C [Example I-1181] | 1000 to 10000 | 50 to 500 | > 500 |
| CC(=O)N1c2ccc(-c3cn[nH]c3)cc2N(C(=O)Oc2ccccc2)C[C@@H]1C [Example I-16, (S)-phenyl 4-acetyl-3-methyl-7-(1H-pyrazol-4-yl)-3,4-dihydroquinoxaline-1(2H)-carboxylate] | 100 to 1000 | < 50 | < 100 |
| CCOC(=O)N1C[C@H](C)N(C(C)=O)c2ccc(-c3cccc(S(=O)(=O)N(C)C)c3)cc21 [Example I-1048] | 1000 to 10000 | 50 to 500 | > 500 |

| Structure (SMILES) | IC50 (BRD4 BD1) [nM] | IC50 (BRD4 BD2) [nM] | IC50 (MV4-11 cells) [nM] |
| --- | --- | --- | --- |
| CC(=O)N1c2ccc(-c3ccc(N4CCCC4=O)cc3)cc2N(C(=O)OC(C)C)C[C@@H]1C [Example I-1134] | 100 to 1000 | 50 to 500 | 100 to 500 |
| CC(=O)N1c2ccc(-c3cccc(-c4ccccc4)c3)cc2N(C(=O)c2ccco2)C[C@@H]1C [Example I-793] | 1000 to 10000 | 50 to 500 | > 500 |
| COC(=O)N1c2ccc(-c3ccc(C(=O)N4CC[C@H](NC(C)=O)C4)cc3)cc2N(C(=O)OC(C)C)C[C@@H]1C [Example I-571] | 100 to 1000 | 50 to 500 | 100 to 500 |
| CC(=O)N1c2ccc(-c3cccc(NS(=O)(=O)N(C)C)c3)cc2N(C(=O)C2CC2)C[C@@H]1C [Example I-1143] | 1000 to 10000 | 50 to 500 | 100 to 500 |
| CC(=O)N1c2ccc(-c3cnn(C4CC4)c3)cc2N(c2n[nH]c3ccccc23)C[C@@H]1C [Example I-93, (S)-1-(6-(1-cyclopropyl-1H-pyrazol-4-yl)-4-(1H-indazol-3-yl)-2-methyl-3,4-dihydroquinoxalin-1 (2H)-yl)ethan-1-one] | 100 to 1000 | 50 to 500 | < 100 |
| CC(=O)N1c2ccc(-c3ccc(NS(C)(=O)=O)c(C)c3)cc2N(C(=O)C2CC2)C[C@@H]1C [Example I-1171] | 100 to 1000 | 50 to 500 | 100 to 500 |
| CC(=O)N1c2ccc(-c3ccc(S(N)(=O)=O)cc3)cc2N(C(=O)C2CC2)C[C@@H]1C [Example I-1066] | 1000 to 10000 | 50 to 500 | > 500 |
| CC(=O)N1c2ccc(-c3cccc(NS(=O)(=O)N(C)C)c3)cc2N(C(=O)OC(C)C)C[C@@H]1C [Example I-1146] | 100 to 1000 | 50 to 500 | 100 to 500 |
| CC(=O)N1c2ccc(-c3ccc(S(=O)(=O)CCO)cc3)cc2N(C(=O)OC(C)C)C[C@@H]1C [Example I-478] | 100 to 1000 | 50 to 500 | 100 to 500 |
| COc1ccc(F)c(OC(=O)N2C[C@H](C)N(C(C)=O)c3ccc(-c4cnn(C5CC5)c4)cc32)c1 [Example I-524] | 100 to 1000 | 50 to 500 | < 100 |
| CC(C)OC(=O)N1C[C@H](C)N(C(=O)C2CC2)c2ccc(-c3ccc(N4CCCS4(=O)=O)cc3)cc21 [Example I-470] | 100 to 1000 | > 500 | > 500 |
| CCOC(=O)N1C[C@H](C)N(C(C)=O)c2ccc(-c3cccc(S(=O)(=O)CC)c3)cc21 [Example I-1092] | 1000 to 10000 | 50 to 500 | > 500 |
| CNC(=O)N1c2ccc(-c3ccc(S(C)(=O)=O)cc3)cc2N(C(=O)c2ccco2)C[C@@H]1C [Example I-988] | 1000 to 10000 | 50 to 500 | > 500 |
| CC(=O)N1c2ccc(-c3cnn(CCO)c3)cc2N(C(=O)Oc2cccnc2)C[C@@H]1C [Example I-1281] | 100 to 1000 | 50 to 500 | 100 to 500 |
| CC(=O)N1c2ccc(-c3cnn(Cc4cc(C)on4)c3)cc2N(C(=O)C2CC2)C[C@@H]1C [Example I-669] | 100 to 1000 | 50 to 500 | > 500 |
| CC(=O)N1c2ccc(-c3cn(C)nn3)cc2N(C(=O)c2ccco2)C[C@@H]1C [Example I-420] | 1000 to 10000 | 50 to 500 | > 500 |
| CNC(=O)CN(C)C(=O)c1ccc(-c2ccc3c(c2)N(C(=O)OC(C)C)C[C@H](C)N3C(=O)OC)cc1 [Example I-563] | 100 to 1000 | 50 to 500 | 100 to 500 |
